# Assay results as given in patent US9598365B2, “Method for synthesizing cycloalkanyl[b]indoles, cycloalkanyl[b]benzofurans, cycloalkanyl[b]benzothiophenes, compounds and methods of use” (Trustees of Dartmouth College, priority 2012, dated 2017).
# “And” between values parts separate entries of the source, which are not always exact repeats. Equal values may be shown once.
# Tests used:
# hNCI-H716 [1] = experiment: hNCI-H716 GLP-1 secretion; format: cell-based
# Text: (§1) Selected compounds of this invention were screened for K-Ras Wnt synthetic lethal, anti-angiogenic activity, Wnt pathway modulatory activity, insulin and GLP-1 secretion modulatory activity, GPR119 receptor agonist activity, mGlu2R antagonist activity, CGRP receptor antagonist activity, Apelin receptor agonist activity and hexokinase 2 inhibitory activity using the PD^2 and TD^2 Screening Panel (Eli Lilly & Company). See Lee, et al. (2011) J. Biomol. Screen. 16:588-602.
# (§2) In light of the above results, additional compounds (Table 7) were prepared and phenotypic assays were carried out using hNCI-H716 and mSTC-1 cell lines to monitor GLP-1 secretion (single point (SP) and concentration response curves (CRC)) (Table 8), as well as a secondary assay with pituitary cells (Table 9).
# mSTC-1 = mSTC-1 GLP-1 secretion; format: cell-based; conditions: concentration response curve, read-out: Primary CRC (EC50, μM) mSTC
# Description: as §2
# hNCI-H716 [2] = experiment: hNCI basal LDH secretion; format: cell-based; conditions: read-out: Primary CRC (EC50, μM) hNCI Basal
# Description: as §2
# [3] = Plasma compound exposure after oral dosing in mice; format: in vivo, Mice (male C57BL/6); conditions: oral 100 mg/kg, 30 minutes post-dose
# Description: (§3) Mice (male C57BL/6, 8-10 weeks of age) were fasted overnight by being placed in a clean cage without food. The next day, all mice were weighed and assigned to groups of similar body weights. Test compounds were formulated in 1% HEC, 0.25% TWEEN 80, 0.05% antifoam (vehicle control). Compounds 11ls and llu were orally dosed (100 mg/kg) and cardiac sticks were done on CO2 euthanized mice at 30 minutes post-dose. Blood (500+μL whole blood) from the cardiac stick was placed in chilled EDTA-plasma tubes with inhibitors, DPP4 inhibitor (5 μL/500 μL blood) and aprotinin (bovine lung, […]/500 μL blood), and stored on ice. Plasma was separated by centrifugation and aliquoted for compound exposure to total GIP and GLP-1 (X-36 amide). Plates for compound exposure were analyzed for absorption, distribution, metabolism, and excretion, while conventional kits were used for GLP-1 (x-36) amide (Mesoscale) and GIP (Millipore) analyses.
# GLP-1 (X-36 amide) = experiment: Plasma GLP-1 response to oral compound in mice; format: in vivo, Mice (male C57BL/6); conditions: oral 100 mg/kg, plasma 30 minutes post-dose
# Description: as §3
# GIP = experiment: Plasma GIP response to oral compound in mice; format: in vivo, Mice (male C57BL/6); conditions: oral 100 mg/kg, plasma 30 minutes post-dose
# Description: as §3
# HCT116 = experiment: K-Ras Wnt synthetic lethal, HCT116 KrasSL; format: cell-based; conditions: Homo sapiens, HCT-116, read-out: HCT116 KrasSL % Inhibit
# Text: as §1
# RKO = experiment: K-Ras Wnt synthetic lethal, RKO KrasSL; format: cell-based; conditions: Homo sapiens, average of three independent experiments, read-out: RKO KrasSL % Inhibit
# Text: as §1
# Co1o320 = experiment: K-Ras Wnt synthetic lethal, Co1o320 KrasSL; format: cell-based; conditions: read-out: Co1o320 KrasSL % Inhibit
# Text: as §1
# SNU-C1 = experiment: K-Ras Wnt synthetic lethal, SNU-C1 KrasSL; format: cell-based; conditions: Homo sapiens, read-out: SNU-C1 KrasSL % Inhibit
# Text: as §1
# Angio Tube Area = experiment: Anti-angiogenic activity, Angio Tube Area; format: cell-based; conditions: read-out: Angio Tube Area % Inhibit
# Text: as §1
# Wnt Pathway = experiment: Wnt pathway modulatory activity, Osteo bCat; format: cell-based
# Text: as §1
# Insulin Secretion = experiment: Insulin secretion, Secretion Hi Gluc; format: cell-based
# Text: as §1
# hGPR119 = target: T1, hGPR119 (Homo sapiens, UniProt Q8TDV5); experiment: GPR119 receptor agonist, hGPR119 agonism; format: cell-based; conditions: @ 10 μM
# T1 sequence (Q8TDV5 1-335): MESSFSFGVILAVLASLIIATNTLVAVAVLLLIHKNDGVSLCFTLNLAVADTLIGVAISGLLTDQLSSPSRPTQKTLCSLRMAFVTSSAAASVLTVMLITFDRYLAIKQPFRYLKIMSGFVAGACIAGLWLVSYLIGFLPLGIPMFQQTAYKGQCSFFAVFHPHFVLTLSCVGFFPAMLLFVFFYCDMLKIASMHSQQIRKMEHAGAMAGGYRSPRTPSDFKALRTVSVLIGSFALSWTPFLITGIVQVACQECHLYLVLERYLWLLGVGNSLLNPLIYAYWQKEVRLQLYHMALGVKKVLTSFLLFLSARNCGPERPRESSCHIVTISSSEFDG
# Text: as §1
# hMGLUR2 = hMGLUR2 (Homo sapiens, UniProt Q14416); experiment: mGlu2R antagonist, hMGLUR2; format: cell-based
# Sequence of hMGLUR2 (Q14416 19-872): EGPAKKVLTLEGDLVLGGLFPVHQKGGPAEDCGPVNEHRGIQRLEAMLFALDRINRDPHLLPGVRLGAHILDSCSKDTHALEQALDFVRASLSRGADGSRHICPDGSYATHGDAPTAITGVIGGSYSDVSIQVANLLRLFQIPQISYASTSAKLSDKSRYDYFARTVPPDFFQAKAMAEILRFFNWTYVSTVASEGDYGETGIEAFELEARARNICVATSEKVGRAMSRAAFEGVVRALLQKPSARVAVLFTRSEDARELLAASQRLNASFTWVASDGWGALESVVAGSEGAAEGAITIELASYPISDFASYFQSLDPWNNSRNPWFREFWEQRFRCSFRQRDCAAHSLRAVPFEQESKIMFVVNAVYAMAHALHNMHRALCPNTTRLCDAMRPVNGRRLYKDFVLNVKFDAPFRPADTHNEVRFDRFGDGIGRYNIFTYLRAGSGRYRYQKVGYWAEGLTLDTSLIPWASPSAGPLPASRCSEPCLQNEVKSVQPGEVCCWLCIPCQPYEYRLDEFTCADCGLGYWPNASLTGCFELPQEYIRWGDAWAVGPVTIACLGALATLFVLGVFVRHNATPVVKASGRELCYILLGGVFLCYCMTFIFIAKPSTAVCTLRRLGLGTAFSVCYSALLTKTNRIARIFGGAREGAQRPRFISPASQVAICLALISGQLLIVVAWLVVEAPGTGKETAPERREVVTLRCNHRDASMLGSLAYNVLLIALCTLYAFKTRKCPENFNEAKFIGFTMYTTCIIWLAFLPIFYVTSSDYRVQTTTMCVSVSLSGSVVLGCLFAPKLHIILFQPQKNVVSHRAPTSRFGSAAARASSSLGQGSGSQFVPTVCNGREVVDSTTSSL
# Text: as §1
# hCGRP1 = hCGRP1 (Homo sapiens, UniProt O60894+Q16602); experiment: CGRP receptor antagonist, hCGRP1 antagonism; format: cell-based
# Sequence of hCGRP1 (Q16602 23-461): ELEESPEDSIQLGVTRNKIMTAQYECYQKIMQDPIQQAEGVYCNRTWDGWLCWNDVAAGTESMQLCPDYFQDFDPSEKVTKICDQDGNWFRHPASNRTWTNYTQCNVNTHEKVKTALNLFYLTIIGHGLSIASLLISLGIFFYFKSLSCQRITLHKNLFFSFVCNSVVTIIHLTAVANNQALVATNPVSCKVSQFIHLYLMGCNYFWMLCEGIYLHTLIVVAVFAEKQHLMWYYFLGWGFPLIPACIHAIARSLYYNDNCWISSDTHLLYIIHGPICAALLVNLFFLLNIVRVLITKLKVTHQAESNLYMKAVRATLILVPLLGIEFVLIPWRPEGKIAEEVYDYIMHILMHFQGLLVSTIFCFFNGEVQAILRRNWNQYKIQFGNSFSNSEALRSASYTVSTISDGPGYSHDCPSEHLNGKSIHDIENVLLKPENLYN
# Sequence of hCGRP1 (O60894 27-148 partner): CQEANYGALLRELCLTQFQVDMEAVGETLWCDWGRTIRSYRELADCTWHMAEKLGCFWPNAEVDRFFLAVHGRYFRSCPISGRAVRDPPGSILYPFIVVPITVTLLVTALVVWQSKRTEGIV
# Text: as §1
# hApelin = target: T2, hApelin (Homo sapiens, UniProt P35414); experiment: Apelin receptor agonist, hApelin agonism; format: cell-based; conditions: @ 30 μM
# T2 sequence (P35414 1-380): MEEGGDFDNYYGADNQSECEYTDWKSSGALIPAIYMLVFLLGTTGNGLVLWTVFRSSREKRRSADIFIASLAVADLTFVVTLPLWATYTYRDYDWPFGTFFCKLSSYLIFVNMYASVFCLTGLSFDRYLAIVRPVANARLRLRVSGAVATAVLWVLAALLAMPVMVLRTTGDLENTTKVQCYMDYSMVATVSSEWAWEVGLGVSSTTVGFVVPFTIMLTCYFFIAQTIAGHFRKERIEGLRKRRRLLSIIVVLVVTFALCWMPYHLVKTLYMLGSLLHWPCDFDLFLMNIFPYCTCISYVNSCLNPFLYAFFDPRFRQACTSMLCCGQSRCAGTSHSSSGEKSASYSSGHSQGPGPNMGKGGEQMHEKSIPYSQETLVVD
# Text: as §1
# hHK2 = target: T3, hHK2 (Homo sapiens, UniProt P52789); experiment: Hexokinase 2 inhibitor, hHK2 ADP-FP; format: biochemical
# T3 sequence (P52789 1-917): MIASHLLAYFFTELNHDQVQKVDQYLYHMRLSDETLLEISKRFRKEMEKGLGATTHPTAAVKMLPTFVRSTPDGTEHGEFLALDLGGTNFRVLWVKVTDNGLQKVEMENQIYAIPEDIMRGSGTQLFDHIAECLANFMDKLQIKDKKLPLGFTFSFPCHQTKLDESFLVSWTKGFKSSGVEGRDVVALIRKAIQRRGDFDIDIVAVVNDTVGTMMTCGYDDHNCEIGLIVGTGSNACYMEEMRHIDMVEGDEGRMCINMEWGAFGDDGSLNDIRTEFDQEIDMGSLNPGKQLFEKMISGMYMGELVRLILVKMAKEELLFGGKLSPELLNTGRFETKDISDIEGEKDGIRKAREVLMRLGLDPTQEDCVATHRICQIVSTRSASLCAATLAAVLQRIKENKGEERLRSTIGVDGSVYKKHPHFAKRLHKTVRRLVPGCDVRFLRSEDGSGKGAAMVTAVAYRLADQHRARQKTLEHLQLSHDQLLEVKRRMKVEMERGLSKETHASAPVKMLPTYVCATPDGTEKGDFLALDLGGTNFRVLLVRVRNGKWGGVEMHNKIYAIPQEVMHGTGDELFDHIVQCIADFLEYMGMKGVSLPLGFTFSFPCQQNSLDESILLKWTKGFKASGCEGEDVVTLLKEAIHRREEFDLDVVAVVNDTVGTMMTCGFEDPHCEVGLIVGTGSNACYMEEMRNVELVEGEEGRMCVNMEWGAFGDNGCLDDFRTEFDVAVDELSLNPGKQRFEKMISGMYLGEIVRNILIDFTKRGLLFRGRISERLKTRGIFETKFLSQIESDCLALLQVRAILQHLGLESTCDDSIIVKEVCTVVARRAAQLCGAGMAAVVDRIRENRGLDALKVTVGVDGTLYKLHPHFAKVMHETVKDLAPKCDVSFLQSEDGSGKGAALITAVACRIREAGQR
# Text: as §1
# Pituitary Cells = experiment: Secondary assay, pituitary cells growth hormone secretion; format: cell-based; conditions: @ 3.3 μM
# Description: as §2
compound,measurement,setting,value
CC1(C)c2c([nH]c3ccc(I)cc23)C2C=CC1C2 (stereo not drawn) [Compound 11u],Primary SP hNCI (% Stim.),"hNCI-H716 [1]; 2 μM, GLP-1 secretion, single point",0%
same,Primary SP hNCI (% Stim.),"hNCI-H716 [1]; 20 μM, GLP-1 secretion, single point",57%
same,EC50,mSTC-1,2 µM and 3.2 µM
same,EC50,hNCI-H716 [2],35.8 µM
same,mean (±standard deviation) plasma levels,[3],201.6 ± 37.24 ng/mL
same,Avg. GLP-1 (pg/mL) ±SEM,GLP-1 (X-36 amide),7.66 ± 0.89 pg/mL
same,Avg. GIP (pg/mL) ±SEM,GIP,26.23 ± 10.35 pg/mL
CC1(C)c2c([nH]c3ccc(Br)cc23)C2C=CC1C2 (stereo not drawn) [Compound 11t],inhibition at 0.2 µM,HCT116; @ 0.2 μM,5.3%
same,inhibition at 2 µM,HCT116; @ 2 μM,-11.5%
same,inhibition at 20 µM,HCT116; @ 20 μM,104%
same,inhibition at 0.2 µM,RKO; @ 0.2 μM,-5.8%
same,inhibition at 2 µM,RKO; @ 2 μM,17.6%
same,inhibition at 20 µM,RKO; @ 20 μM,102%
same,inhibition at 0.2 µM,Co1o320; @ 0.2 μM,-6.6%
same,inhibition at 2 µM,Co1o320; @ 2 μM,23.1%
same,inhibition at 20 µM,Co1o320; @ 20 μM,152%
same,inhibition at 0.2 µM,SNU-C1; @ 0.2 μM,-1%
same,inhibition at 2 µM,SNU-C1; @ 2 μM,-19.1%
same,inhibition at 20 µM,SNU-C1; @ 20 μM,107%
same,inhibition at 2 µM,Angio Tube Area; @ 2 μM,8%
same,inhibition at 10 µM,Angio Tube Area; @ 10 μM,38%
same,Osteo bCat % Stimulation,Wnt Pathway; @ 2 μM,1.8%
same,Osteo bCat % Stimulation,Wnt Pathway; @ 10 μM,5.5%
same,Secretion Hi Gluc % Stimulation,Insulin Secretion; @ 2 μM,0.1%
same,Secretion Hi Gluc % Stimulation,Insulin Secretion; @ 10 μM,19.1%
same,activation at 2 µM,"hNCI-H716 [1]; 2 μM, GLP-1 secretion, single point, read-out: Primary SP hNCI (% Stim.)",0%
same,activation at 20 µM,"hNCI-H716 [1]; 20 μM, GLP-1 secretion, single point, read-out: Primary SP hNCI (% Stim.)",35.2%
same,hNCI GLP-1 Secretion % Stimulation,hNCI-H716 [1]; @ 2 μM,0%
same,hNCI GLP-1 Secretion % Stimulation,hNCI-H716 [1]; @ 20 μM,35.2%
same,EC50,"hNCI-H716 [1]; GLP-1 secretion, concentration response curve, read-out: Primary CRC (EC50, μM) hNCI",29.1 µM and 17.6 µM and 16.4 µM
same,EC50,"hNCI-H716 [1]; average of three independent experiments, read-out: hNCI GLP-1 Secretion EC50",29.1 µM
same,EC50,"hNCI-H716 [1]; secretion and/or production of GLP-1, read-out: EC50 values (Table 6)",29 µM
same,hGPR119 agonism % Stimulation,hGPR119,−2.3%
same,inhibition at 50 µM,hMGLUR2,-19.7%
same,inhibition at 30 µM,hCGRP1,67.7%
same,hApelin agonism % Stimulation,hApelin,−52.8%
same,inhibition at 20 µM,hHK2,3.2%
same,EC50,mSTC-1,2.4 µM and 4.1 µM and 2.2 µM
same,"Pituitary Cells (Growth Hormone Secretion, % Stimulation)",Pituitary Cells,−12.6% and −7.1%
